Data reported in PubChem BioAssay (NCI).
Several values for one entry are separate records, joined by “and”; a condition that tells them apart may be missing. Equal entries are not always repeated.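 Interpolation was linear, between the two tested concentrations surrounding the appropriate level; five concentrations were tested over 48 hours in 96-well plates. GI50 = concentration required for 50% inhibition of growth. The concentration for full growth arrest is given as TGI.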

Assays:
Test in all cases: NCI tumour cell line growth inhibition, 48 h
[1] = tested on: U251 CNS
[2] = tested on: SF-539 CNS
[3] = tested on: SK-MEL-2 melanoma
[4] = tested on: K-562 leukemia
[5] = tested on: NCI-H226 lung
[6] = tested on: OVCAR-8 ovarian
[7] = tested on: SF-295 CNS
[8] = tested on: SNB-75 CNS
[9] = tested on: A549 NSCLC
[10] = tested on: NCI-H522 lung

Structure (SMILES) | TGI [1] | TGI [2] | TGI [3] | TGI [4] | TGI [5] | TGI [6] | TGI [7] | TGI [8] | TGI [9] | TGI [10] | GI50 [1] | GI50 [2] | GI50 [9] | GI50 [3] | GI50 [4] | GI50 [5] | GI50 [6] | GI50 [7] | GI50 [8]
CC(=O)Nc1ccc(-c2nc3ccccc3s2)cc1 | 92.6 µM | 67.1 µM | > 100 µM | 77 µM | > 100 µM | > 100 µM | > 100 µM | 90.9 µM | – | – | – | – | – | – | – | – | – | – | –
COc1cc(/C=C/C(=O)O)ccc1C(=O)OCc1ccccc1 | > 100 µM | > 100 µM | > 100 µM | > 100 µM | > 100 µM | > 100 µM | > 100 µM | > 100 µM | > 100 µM | > 100 µM | – | – | – | – | – | – | – | – | –
COC(=O)CN(C)P(=O)(N1CC1)N1CC1 | > 100 µM | > 100 µM | > 100 µM | > 100 µM | – | > 100 µM | > 100 µM | > 100 µM | > 100 µM | > 100 µM | – | – | – | – | – | – | – | – | –
Cc1cccc(C(C)C)c1NC(=O)CC1Sc2ccccc2NC1=O (configuration not stated) | > 100 µM | > 100 µM | > 100 µM | > 100 µM | > 100 µM | > 100 µM | > 100 µM | > 100 µM | > 100 µM | > 100 µM | – | – | – | – | – | – | – | – | –
CN1CCN(CN2C(=O)C3C4C=CC(C3C2=O)C2C(=O)N(CN3CCN(C)CC3)C(=O)C42)CC1 (configuration not stated) | > 100 µM | > 83.3 µM | > 100 µM | > 100 µM | > 100 µM | > 100 µM | > 100 µM | > 100 µM | – | > 59.5 µM | – | – | – | – | – | – | – | – | –
CCCC(O)C(NC(=O)CCl)C(=O)O (configuration not stated) | > 100 µM | > 100 µM | > 100 µM | > 100 µM | > 100 µM | > 100 µM | > 100 µM | > 100 µM | > 100 µM | > 100 µM | – | – | – | – | – | – | – | – | –
COc1cc2c3c(c4cc(OC)c(OC)cc4c2cc1OC)C(=O)C1CCC(=O)N1C3 (configuration not stated) | > 100 µM | 39.8 µM | > 100 µM | > 100 µM | – | > 100 µM | > 100 µM | 32.2 µM | – | 23.3 µM | – | – | – | – | – | – | – | – | –
O=C(CC(=O)c1ccccc1)CC(O)(c1ccccc1)c1ccccc1 | 14.9 µM | – | 22.2 µM | 33.4 µM | – | 20.5 µM | 17.1 µM | 27.5 µM | – | 13.6 µM | – | – | – | – | – | – | – | – | –
CC12CCC3C(CCC4=CC(O)CCC43C=O)C1(O)CCC2c1ccc(=O)oc1 (configuration not stated) | 0.0292 µM and 0.064 µM | 0.0115 µM and 0.0515 µM | 0.0483 µM and 0.0815 µM | 0.247 µM and 0.143 µM | 0.0831 µM and 0.21 µM | 0.0532 µM and 0.0526 µM | 0.0466 µM and 0.107 µM | 0.0544 µM and 0.0523 µM | 0.02 µM | 0.00741 µM | 0.05 µM | 0.05 µM | 0.00452 µM | 0.05 µM | 0.0274 µM | 0.0866 µM | 0.05 µM | 0.05 µM | 0.05 µM
CC(=O)OC1(C#N)CC2OC1C1C2N=NN1C(=O)OC(C)(C)C (configuration not stated) | – | 52.7 µM | 68.9 µM | > 100 µM | – | > 100 µM | – | > 100 µM | > 100 µM | > 100 µM | – | – | – | – | – | – | – | – | –
